One assay deals with E. coli. The assay is classed as cell-based. The source says: Further evidence for the influence of bioavailable copper on the IC50 of DB4-51 was obtained by using a checkerboard assay. […] Serial dilutions of DB4-51 in LB were arrayed against dilutions of chelator (BCS and EDTA). The antagonism exists between our prochelator, DB4-51, and the strong, extracellular chelators BCS and EDTA. […] However, at lower concentrations, EDTA works antagonistically with DB4-51 by restoring bacterial growth. This trend further underscores the influence that copper and potentially other metals have on the growth inhibitory activity of DB4-51.

The subject of another assay is several strains. As to conditions: concentrations below 1 mM. The source says:
[39, 40] […] To control for the impact of copper alone, the cultures of 5 bacterial strains were subjected to a serial dilution of CuCl2. […] [41] To control for the impact of limited Cu, several strains were also challenged with a serial dilution of BCS.

For the compound `Cc1cc(-c2ccc(S(=O)(=O)O)cc2)c2ccc3c(-c4ccc(S(=O)(=O)O)cc4)cc(C)nc3c2n1` [BCS, bathocuproine disulfonate], in the assay with E. coli (at 52 μM DB4-51), the “concentration that restored E. coli growth” value is not below 125 µM. The “effect on bacterial growth” value with several strains is given as “did not inhibit bacterial growth”.
Turning to `O=C(O)CN(CCN(CC(=O)O)CC(=O)O)CC(=O)O` [EDTA, Ethylenediaminetetraacetic acid], the “effect on bacterial growth” value with E. coli (high concentrations (>125 μM)) is recorded as “some inhibition of bacterial growth”.

Source of the values: patent publication US10533018B2, “Antimicrobial prochelators to target drug-resistant bacteria and methods of making and using the same” (Duke University, priority 2015, dated 2020).
